One series in a line: ChromLogD. The series is classed as physicochemical. The conditions noted are these: pH 7.4; read-out: Chrom LogDpH7.4. How it is done:
Chrom LogD was measured as previously described:
solubility and hydrophobicity. Drug Discov. Today 2010, 15, 648−655. […]

Series [1] concerns intracellular T. cruzi X10/7 A1 amastigotes.
Another series has as its target Human 20S proteasome (Homo sapiens, UniProt P28074+P49721). As to the kind of experiment: human proteasome assay (chymotrypsin-like activity, Suc-LLVY-Rho-110-DPro). To be noted: for Emax: read-out: Hs Prot Max Response (%), individual replicate.
A short description of series [2]: Mouse microsomal intrinsic clearance. The series is classed as in vitro ADME. To be noted: mouse liver microsomes, scaling 52.5 mg microsomal protein/g liver. How it is done: Mouse microsomal intrinsic clearance.
This assay was conducted as previously described:
J.; Reid, I. H.; Hill, A. P.;
(§1) were prepared by adding a volume (5 µL) of the 10 mM solution to a volume (195 µL) of […]

The nature of series [3]: Kinetic aqueous solubility (UHPLC, PBS pH 7.4). The series is classed as physicochemical. The conditions noted are these: phosphate buffered saline, UHPLC UV/MS. How it is done: This assay was conducted as previously described: […]
as §1
format). Samples were then drawn through the filter using vacuum. The filtrate from the above […]
formic acid gradient elution. The UHPLC parameters are shown below:
Gradient program: Initial: 98% A, 2% B
Re-equilibration time: 0.6 min
Autosampler temperature: 25°C
Detector wavelength: 254 nm

The target of another series is T. cruzi proteasome (Trypanosoma cruzi, UniProt V5BU39+V5C017). The series is described as follows: T. cruzi proteasome assay (chymotrypsin-like activity, Suc-LLVY-Rho-110-DPro). The conditions noted are these: for Tc Prot Hill Slope / Tc Prot Max Response (%): individual replicate; for Emax: read-out: Tc Prot Max Response (%), individual replicate.
T. cruzi proteasome, sequence (V5BU39 entry or part of it): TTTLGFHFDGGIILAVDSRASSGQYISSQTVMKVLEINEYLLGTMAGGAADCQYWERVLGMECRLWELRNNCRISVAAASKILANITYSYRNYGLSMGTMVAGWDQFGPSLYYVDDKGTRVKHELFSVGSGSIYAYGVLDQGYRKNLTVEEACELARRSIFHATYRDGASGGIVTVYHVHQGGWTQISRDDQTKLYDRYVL
T. cruzi proteasome, sequence (V5C017 entry or part of it): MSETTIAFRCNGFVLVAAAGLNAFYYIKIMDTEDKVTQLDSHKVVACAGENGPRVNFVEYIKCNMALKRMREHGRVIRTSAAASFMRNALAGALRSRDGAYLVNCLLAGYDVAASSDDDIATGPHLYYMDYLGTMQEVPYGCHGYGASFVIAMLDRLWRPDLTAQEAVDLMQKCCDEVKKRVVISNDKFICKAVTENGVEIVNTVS
A short description of another series: FaSSIF solubility. To be noted: fasted state simulated intestinal fluid.
A short description of another series: Brain tissue binding. The series is classed as in vitro ADME. The conditions noted are these: read-out: brain tissue free fraction.
A short description of series [4]: In vivo blood exposure / pharmacokinetics in mice. The arrangement: species or system mouse.
Protocol: Blood samples (10 μL) where taken
and 24 hours post dose samples for I.V. leg only) and mixed with two volumes of deionized water (20 μL). After suitable sample preparation, the concentration of test compound in the whole blood from treated mice was determined by UPLC-MS/MS using a Quattro Premier XE (Waters, USA). Pharmacokinetic parameters were derived from the mean blood concentration time curve using PK solutions software v 2.0 (Summit Research Services, USA).
Series [5] concerns T. cruzi. The series is described as follows: T. cruzi in vitro washout assay. The format is cell-based, Trypanosoma cruzi. The conditions noted are these: for parasites relapsing on day: 8 days of treatment, 50-fold EC50; for relapses, days post washout: 16-day treatment at 25-fold EC50, two replicates each. From the text:
T. cruzi in vitro washout assay
This assay was run as previously reported:
Marco M.; Miles T.J.; Naylor C.; Osuna-Cabello M.; Paterson C.; Read K.D.; Pinto E.G.; Riley
J.; Scullion P.; Shishikura Y.; Simeons F.; Stojanovski L.; Svensen N.; Thomas J.; Wyatt P.G.;
disubstituted piperazines for the treatment of Chagas disease. […]

The next series concerns P-gp (MDR1). As to the kind of experiment: in vitro. To be noted: dog, MDCK-MDR1.
A further series can be described thus: Brain-blood ratio. The series is classed as in vivo. To be noted: mouse.
For series [6], the system named is T. cruzi. The series is described as follows: Chronic mouse efficacy model of Chagas disease. The series is classed as in vivo, Balb/c mice. How it is done:
All regulated procedures on living animals were carried out under the authority of a project license issued by the Home Office under the Animals (Scientific Procedures) Act 1986, as amended in 2012 (and in compliance with EU Directive EU/2010/63). Infected animals had access to food and water ad libitum and were housed under a 12-hour light/dark photoperiod.
Animals used in these experiments were female NMRI and Balb/c mice (Harlan, UK). […]
In vivo Mouse Efficacy Studies.
The T. cruzi chronic efficacy study was run in Balb/c mice as previously described:
M.D. Lewis, A. Fortes Francisco, M.C. Taylor, J.M. Kelly, A new experimental model for assessing drug efficacy against Trypanosoma cruzi infection based on highly sensitive in vivo imaging, J. Biomol. Screen 20 (1) (2015) 36–43

Series [7] in a line: Kinetic solubility by chemiluminescent nitrogen detection (CLND). The series is classed as physicochemical.
[8] abbreviates: mean of at least three independent replicates.
Setting [9] is: T. cruzi Prot pIC50, mean of at least three independent replicates.
Where [10] appears, read: Tc Prot pIC50, individual replicate.

In brackets after ≈: the same amount, converted by molar mass. Several values for one entry are separate records, joined by “and”; a condition that tells them apart may be missing. Equal entries are not always repeated.

Protocol for FaSSIF solubility: undissolved material using a proprietary filter (Millipore Multiscreen HTS filter, 96-well
was analysed for dissolved drug compound using a truncated UHPLC methodology. A Shimadzu Nexera X2 UHPLC system was used, with a reversed-phase column and a simple
Mobile phase component A HPLC water plus 0.1% formic acid
Mobile phase component B HPLC acetonitrile plus 0.1% formic acid
Column: Hypersil Gold, C18 1.9 µm, 50 x 2.1 mm
A calibration solution was prepared in the following way: The same 10 mM solution used to
was then diluted with 50:50 acetonitrile:water to give a 50 µM solution. Aliquots (0.2, 2.0 and
5.0 µL) of this 50 µM solution were then injected onto the UHPLC system and the areas of the
resultant peaks integrated to produce a calibration line. Aliquots of the test sample filtrate (0.4
and 5.0 µL) were then injected onto the UHPLC system and the resultant peak areas for any
peaks corresponding to the test compound determined and quantified using the calibration line
(the injection volume that gave a peak area closest to the calibrated range was used for
Protocol for Human 20S proteasome: T. cruzi and human proteasome assays
(§2) The T. cruzi proteasome was partially purified as described in the above reference and Human
(§3) 20S proteasome was purchased from Boston Biochem (now R&D Systems, catalogue number
(§4) a Tecan Fluent to titrate over 11 points in Labcyte Echo-compatible Greiner Bio-One 384 well
(§5) polypropylene microplates. Subsequently, 100 nl of test compound titrations were transferred
(§6) to black Greiner Bio-One low volume 384 well microplates using a Labcyte Echo acoustic
(§7) 50 mM HEPES pH 7.5, 150 mM sodium chloride, 5% Glycerol, 1 mM dithiothreitol, 1 mM
(§8) CHAPS in deionised, filtered water (all chemicals purchased from Sigma Aldrich). Human 20S
(§9) These enzyme solutions were prepared immediately prior to assay initiation and stored at 4 °C
(§10) To monitor the Chymotrypsin-like activity of the T. cruzi and Human 20S proteasome proteins
(§11) a self-quenched, Rhodamine 110-labelled peptide with the sequence Suc-LLVY-Rho-110-
(§12) DPro was used (prepared by Cambridge Research Biochemicals. Suc is succinyl, while DPro
(§13) refers to ᴅ-proline). The peptide was initially prepared from solid as a 10 mM solution in 100%
(§14) DMSO and stored at -20 °C. Prior to use in the assay, an aliquot was thawed at room
(§15) to twofold Km. For use with the Human 20S proteasome, the Suc-LLVY-Rho-110-DPro
(§16) peptide was diluted in assay buffer to a concentration equivalent to twofold Km, which for this
(§17) enzyme was 2 μM. The peptide solutions were protected from light and stored at 4 °C before
(§18) A Multidrop Micro (Thermo Fisher), using a low volume dispense cassette, was used to add
(§19) the assay solutions to the test compounds in the low volume 384-well microplates. Prior to
(§20) addition of proteasome solution, 5 μl of assay buffer was added to one column (containing 100
(§21) nl, 100% DMSO) to act as no enzyme control to mimic full inhibition. Subsequently, 5 μl of
(§22) proteasome solution (either T. cruzi or Human 20S) was added to all wells on the test
(§23) microplate apart from the column containing 5 μl assay buffer. The microplate was then spun
(§24) using a suitable bench top centrifuge for 1 minute at 1000 rpm, before incubation at room
(§25) Following the initial incubation, 5 μl of substrate solution was then added to all wells on the
(§26) test microplate using a Multidrop Micro equipped with a discrete low volume dispense cassette.
(§27) The test microplates were then spun for 10 seconds at 1000 rpm before being rapidly moved to
(§28) a multi-mode microplate reader, capable of monitoring fluorescence intensity. The microplate
(§29) reader used for these studies was a Tecan M1000 Pro, equipped with quad monochromators.
(§30) 530 ± 5 nm. A series of fluorescence intensity measurements were taken every 30 seconds for
(§31) Subsequently, the fluorescence intensity measurements (relative fluorescence units, RFU) were
(§32) fit to a simple linear regression model (y = A + Bx, where y refers to the fluorescence intensity
(§33) and x refers to the time in seconds) to determine the initial rate of reaction. The initial rate for
(§34) every compound concentration tested was then fit a 4-parameter logistic model: y = (A + (B -
(§35) A)) / (1 + (x / C)D), where y refers to the assay response, x refers to the inhibitor concentration,
(§36) A and B are the range values (minimum and maximum, respectively), C is the IC50 value and
(§37) D is the slope. Potency values were then reported as pIC50, which is the negative log of the
(§38) IC50 (on a molar scale). Data analysis was automated and carried out using the ActivityBase
Protocol for P-gp (MDR1): MDR1-MDCK Permeability assay
Bi-directional transport was assessed in the presence and absence of Pgp inhibitor GF120918
(Elacridar). MDCK-MDR1 cells (Netherlands Cancer Institute) were maintained in culture
(DMEM, Gibco Cat: 61965-026 supplemented with 1% penicillin/streptomycin, 10% FCS)
until required. For experimentation, cells were seeded onto individual transwell ’Thincerts’
(Greiner, Cat 662610) at a density of 35,000 cells/well. Cells were grown at 37 °C, 5% CO2 for
3 days. On day 4, media was replaced with fresh media and incubated for 1 hour. Prior to
experimentation, cells were incubated with Dulbeccos PBS (Gibco, 14287-080) with/without
Pgp inhibitor, 2 µM GF120918, to ensure inactivation of the Pgp transporter. Cells were then
dosed apically and basolaterally (1 µM test compound, 10 µM Lucifer Yellow (1% DMSO)
with/without 2 µM GF120918) for 1 hour. 100 mL of solution from donor and receiver wells
was removed to a 96 well deepwell plate alongside 100 mL of dosing solution. 150 µL of
acetonitrile containing internal standard (e.g., 100 ng/mL Sulfadimethoxine) was then added
to all samples prior to analysis by LC-MS/MS. Amprenavir (positive control) were run […]
a Lucifer Yellow standard curve for fluorescence determination of Lucifer Yellow
concentrations. Papp (apparent permeability) values were calculated for each compound for […]
efflux ratios (ER) determined using the following equations: […]
Protocol for T. cruzi proteasome: T. cruzi and human proteasome assays
as §2, §3, §4, §5, §6, §7, §8, §9, §10, §11, §12, §13, §14, §15, §16, §17, §18, §19, §20, §21, §22, §23, §24, §25, §26, §27, §28, §29, §30, §31, §32, §33, §34, §35, §36, §37, §38

Turning to `COc1ccc(Cn2nc(C(=O)Nc3ccc(F)c(C(=O)NCCN4CCOCC4)c3)ccc2=O)cc1` [Compound 21, N-[4-Fluoro-3-(2-morpholinoethylcarbamoyl)phenyl]-1-[(4-methoxyphenyl)methyl]-6-oxo-pyridazine-3-carboxamide], the chromatographic logD in the series “ChromLogD” was 3.7. In addition, the EC50 (usually the concentration needed to bring the measured effect to its halfway point) is 1580 nM and 1000 nM in series [1]; > 50100 nM in the series on host VERO cells. The Emax in series [1] is 95% and 94% and 98% and 96% and 92%; at Human 20S proteasome, 9%; on T. cruzi proteasome, 80%. Moreover, the “Hs Prot Max Response (%)” value on Human 20S proteasome (individual replicate) came to 12%. The entries for the “Hs Prot pIC50” value on Human 20S proteasome (individual replicate) and at Human 20S proteasome (setting [8]) were < 4 and <4, respectively. Moreover, in [2], the “Mouse CLi” value is 3.6 mL/min/g. Also, in series [3], the solubility (commonly the concentration that dissolves in the medium under given conditions) at 24 h turned out to be 200 µM (≈ 102 µg/mL). The IC50 at T. cruzi proteasome (setting [9]) and against T. cruzi proteasome (setting [10]) was 126 nM each time. In addition, the “Tc Prot Hill Slope” value at T. cruzi proteasome is 1.0 and 0.9. The “Tc Prot Max Response (%)” value at T. cruzi proteasome was found to be 72%.

As to `O=C(Nc1ccc(F)c(-c2cn3nc(N4CCOCC4)cnc3n2)c1)N1CCCC1` [Compound 4], the FaSSIF solubility in the series “FaSSIF solubility” was 32 µM. The fraction unbound in “Brain tissue binding” is 0.043. In series [4] (from blood exposure in chronic efficacy model, brain-blood ratio and brain free fraction), the “predicted brain exposure relative to T. cruzi EC99” value is given as “well below T. cruzi EC99”. The “time blood exposure above T. cruzi EC99” value in series [4] (mouse VL efficacy study, 50 mg/kg, also when corrected for plasma protein binding) is listed as > 8 h. Besides, the “parasites relapsing on day” value with T. cruzi [5] came to 34 days. Also, in series [1], the EC50 is 100 nM and 126 nM and 63.1 nM; the Emax is 95% and 90% and 93% and 98% and 99% and 96% and 92% and 100%. Also, the efflux ratio (commonly a quotient of directional permeabilities that is used to spot active efflux) at 1 h, 1 µM in the series on P-gp (MDR1) is 22. Moreover, the IC50 (commonly the concentration needed to halve the response being measured) at Human 20S proteasome (Hs Prot pIC50, individual replicate) was 25100 nM and 79400 nM. Also, on Human 20S proteasome (individual replicate), the “Hs Prot Hill Slope” value is 1.7 and 0.9 and 1.3; the “Hs Prot Max Response (%)” value was 35% and 21% and 42% and 24% and 10% and 50% and 28% and 48% and 38% and 29% and 47% and 41% and 54% and 44% and 52% and 49% and 40%; the “Hs Prot pIC50” value was < 4. Further, the “Hs Prot pIC50” value on Human 20S proteasome (setting [8]) was <4. For the same compound, in “Brain-blood ratio”, the Kp (usually tissue or fluid exposure divided by exposure in the circulation) turned out to be 0.07. Besides, in series [2], the “Mouse CLi” value is given as <0.5 mL/min/g. The “effect on parasite levels” value in the series with T. cruzi [6] (5 days at 50 mg/kg bid) is reported as “no visible effect on parasite levels”. Also, in series [7], the aqueous solubility (as a rule, how much of the substance goes into solution per volume) is 59 µM (≈ 24.3 µg/mL). In addition, the IC50 against T. cruzi proteasome (setting [10]) was < 1.58 nM and 3.98 nM and 7.94 nM and 1.58 nM and 2.51 nM and 12.6 nM and 5.01 nM and 10 nM. For the same compound, at T. cruzi proteasome, the “Tc Prot Hill Slope” value is 1.0 and 0.8 and 0.7 and 0.9 and 0.75 and 1.1 and 0.95; the “Tc Prot Max Response (%)” value is 89% and 88% and 85% and 90% and 87%; the Emax amounted to 91%.

As for `O=C(Cn1ccnc1[N+](=O)[O-])NCc1ccccc1` [BNZ, benznidazole, reference compound], in the series with T. cruzi [5], the “relapses, days post washout” value is 31 days and 35 days; the “parasites relapsing on day” value is 21 days. Besides, the cure result with T. cruzi [6] (100 mg/kg for 20 days, u.i.d) is on record as “cured all mice”. In the series with T. cruzi [6] (dosed at 100 mg/kg), the “effect on parasite levels” value was “reduced parasite levels below detectable limits”.

`CNC(=O)c1cc(NC(=O)c2ccc(=O)n(Cc3ccc(OC)cc3)n2)ccc1F` [Compound 26, N-(4-Fluoro-3-(methylcarbamoyl)phenyl)-1-(4-methoxybenzyl)-6-oxo-1,6-dihydropyridazine-3-carboxamide]: the “relapses, days post washout” value with T. cruzi [5] was 35 days and 42 days. Also, in series [1], the EC50 was 794 nM and 631 nM and 501 nM and 1000 nM; the Emax is 92% and 94% and 95% and 87% and 86% and 98% and 90%. Moreover, on Human 20S proteasome (individual replicate), the “Hs Prot Max Response (%)” value is 21% and 3% and 0%; the “Hs Prot pIC50” value is < 4. For the same compound, at Human 20S proteasome (setting [8]), the “Hs Prot pIC50” value was <4. In the series on host VERO cells, the EC50 was > 50100 nM and the Emax worked out at 20%. The cure entry with T. cruzi [6] (50 mg/kg b.i.d for 20 days) is reported as “not curative”. Moreover, the concentration for half-maximal inhibition (IC50) against T. cruzi proteasome (setting [10]) was 63.1 nM and 31.6 nM. At T. cruzi proteasome, the “Tc Prot Hill Slope” value is 1.0 and 1.1; the “Tc Prot Max Response (%)” value amounted to 82%; the Emax came out at 73%.

In the case of `COc1ncc(Cn2nc(C(=O)Nc3ccc(F)c(C(=O)NC4CC4)c3)ccc2=O)cc1F` [Compound 18, N-(3-(Cyclopropylcarbamoyl)-4-fluorophenyl)-1-((5-fluoro-6-methoxypyridin-3-yl)methyl)-6-oxo-1,6-dihydropyridazine-3-carboxamide], the chromatographic logD in the series “ChromLogD” was 5.6. For the same compound, the figures for the concentration for a half-maximal effect (EC50) (in series [1]; with host VERO cells) were 50100 nM and > 50100 nM, respectively. In addition, the Emax is 53% and 54% and 55% and 67% and 52% in series [1]; 10% on Human 20S proteasome; 75% on T. cruzi proteasome. Also, at Human 20S proteasome (individual replicate), the “Hs Prot Max Response (%)” value amounted to 13%. Moreover, the results for the “Hs Prot pIC50” value at Human 20S proteasome (individual replicate) and at Human 20S proteasome (setting [8]) were < 4 and <4, respectively. In addition, the “Mouse CLi” value in [2] is recorded as 3.5 mL/min/g. In addition, the solubility at 24 h in series [3] was < 1 µM. Also, the IC50 is 2510 nM on T. cruzi proteasome (setting [9]); 5010 nM and 1580 nM on T. cruzi proteasome (setting [10]). In addition, on T. cruzi proteasome, the “Tc Prot Hill Slope” value was 1.2 and 1.1. Also, on T. cruzi proteasome, the “Tc Prot Max Response (%)” value is given as 80%.

The values above are taken from article PMC10424187, “Structure-Guided Design and Synthesis of a Pyridazinone Series of Trypanosoma cruzi Proteasome Inhibitors” (Journal of Medicinal Chemistry, 2023).
